Test results taken from patent US5310749A, “Antiprotozoal composition containing a 2-nitroimidazole derivative and method thereof” (Pola Chemical Industries Inc., priority 1991, dated 1994).

Experiments:
Trypanosoma cruzi [1] = experiment: Anti-protozoan action 2 (in vitro), T. cruzi culture in GIT medium; type: cell-based; set-up: key: +++: same number of protozoa alive as control; ++: slightly less number alive than control; +: less number alive than control; ±: only a few alive; -: all dead; settings: GIT medium (serum-free), 27° C., 120 hours
Protocol: Trypanosoma cruzi was cultured at 27° C. in a GIT medium (serum-free medium) manufactured by Nippon Seiyaku K. K. which was modified to contain […] of hemine. 50 μmol, 100 μmol, 250 μmol and 500 μmol of each of compounds 1) to 3) were added thereto. 120 hours later, life or death of the protozoa was observed under microscope and scored according to the criteria in Example 1. Control was free of any of compounds 1) to 3).

Trypanosoma cruzi [2] = experiment: Anti-protozoan action 1 (in vitro), T. cruzi-infected A204 cells; type: cell-based; set-up: key: +++: same number of protozoa alive as control; ++: slightly less number alive than control; +: less number alive than control; ±: only a few alive; -: all dead; settings: A204 cells infected with T. cruzi, 37° C., 24 hours
Protocol: A204 cells (derived from a […]), which had been infected in advance with Trypanosoma cruzi and maintained by subculture at 37° C., were cultured in a 24-well plate for tissue culture. The protozoa in the number of about 10^5 were confirmed to be present. After the cells were treated with 50 μmol, 100 μmol and 500 μmol of compounds 1) to 3), they were cultured at 37° C. for 24 hours. Life and death of the protozoa was observed under microscope and scored. The medium used was Dulbecco Modified Eagle Medium manufactured by Dainihon-Seiyaku K. K. added with 10% bovine serum. Control was free of any of compounds 1 to 3).

Acute toxicity = settings: mouse, in vivo, ip
Text: ICR mice were intraperitoneally administered with compound 1) for the acute toxicity test. Observation was continued for 14 days after the administration.

[3] = test system: Trypanosoma cruzi (Tulahuen strain); experiment: Anti-protozoan action (in vivo), survival of infected C3H/Hecrj mice (Example 4); set-up: species or system Trypanosoma cruzi (Tulahuen strain) in male C3H/Hecrj mice; settings: 200 mg/kg on days 4-8; 200,000 T. cruzi i.p.; 4 mice; control 12 days
Protocol: Trypanosoma cruzi (Tulahuen strain) in the number of 200,000 was intraperitoneally administered to a group of 5 week old male C3H/Hecrj mice. At each of fourth, fifth, sixth, seventh and eighth day of the administration, 200 mg/kg of compound 1) was given to the mice. Control group was given saline solution instead of compound 1). The anti-protozoaneffect of compound 1) was determined based on the days of survival of the mice.

[4] = test system: Trypanosoma cruzi (Tulahuen strain); experiment: Anti-protozoan action (in vivo), survival of infected ICR mice (Example 3); set-up: species or system Trypanosoma cruzi (Tulahuen strain) in male ICR mice; settings: 200 mg/kg on days 5-9; 400,000 T. cruzi i.p.; all of 3 mice; control 14-15 days
Protocol: Trypanosoma cruzi (Tulahuen strain) in the number of 400,000 was intraperitoneally administered to a group of 4 week old male ICR mice. At each of fifth, sixth, seventh, eighth and ninth day of the administration,200 mg/kg of compound 1) was given to the mice. Control group was given saline solution instead of compound 1). The anti-protozoan effect of compound 1) was determined based on the days of survival of the mice.

[5] = test system: Trypanosoma cruzi (Tulahuen Strain); experiment: Deaths and presence of protozoa in infected ICR mice, compound 1) with or without anionic copolymer (Example 5); type: in vivo, Trypanosoma cruzi (Tulahuen Strain) in ICR male mice
Protocol: Five groups (Groups 1 to 5) of four week old ICR male mice, each group consisting of 3 mice, were provided. Group 2 and Group 5 mice were given 4.4 mg of acrylic acid-diisobutylvinyl ether copolymer (monomer ratio=1:1, average molecular weight=1.29×10^5) as dissolved in a 0.2 ml saline. On the second day, all animals were intraperitoneally given Trypanosoma cruzi (Tulahuen Strain) in the number of 40,000 for each. On the fifth, sixth, seventh, eighth and ninth day of the administration of the Tripanosoma, Group 1 and Group 2 mice were given saline, and Group 3 and Group 5 mice were given compound 1) (200 mg/kg) as dissolved in saline. Group 4 mice were intraperitoneally given 4.4 mg of acrylic acid-diisobutyl vinyl ether copolymer (monomer ratio=1:1, average molecular weight=1.29×10^5) and compound 1) (200 mg/kg) on the fifth day of the administration of the Trypanosoma, and on the sixth, seventh, eighth and ninth day of the administration, compound 1) (200 mg/kg) was intraperitoneally administered. Observation was continued until 60 th day of administration of Trypanosoma. The mice which were alive on the 60th day were killed and dissected to check the presence or absence of the protozoa in blood, the heart and in the liver under microscope.

[6] = ICR mice, intraperitoneal, observation 14 days

Row | SMILES | Life or death of the protozoa, score (Trypanosoma cruzi [1]; 50 μmol) | Life or death of the protozoa, score (Trypanosoma cruzi [1]; 100 μmol) | Life or death of the protozoa, score (Trypanosoma cruzi [1]; 250 μmol) | Life or death of the protozoa, score (Trypanosoma cruzi [1]; 500 μmol) | Life and death of the protozoa, score (Trypanosoma cruzi [2]; 50 μmol) | Life and death of the protozoa, score (Trypanosoma cruzi [2]; 100 μmol) | Life and death of the protozoa, score (Trypanosoma cruzi [2]; 500 μmol) | LD50 at 336 h (Acute toxicity; [6]) | days of survival of the mice [3] | LD50 at 336 h (Acute toxicity) | days of survival of the mice [4] | Number of Dead Samples ([5]; Group 3: compound 1) 200 mg/kg on days 5-9) | death in the groups given compound 1) ([5]; Group Nos. 3, 4 and 5)
1 | O=[N+]([O-])c1nccn1[C@H]1O[C@H](CO)[C@@H](O)[C@H]1O [Compound 3)] | +++ | +++ | +++ | + | ++ | ++ | + | > 5000 mg/kg |  |  |  |  | 
2 | O=[N+]([O-])c1nccn1COC(CO)CO [Compound 2)] | +++ | +++ | +++ | +++ | ++ | ++ | - | 4300 mg/kg |  |  |  |  | 
3 | O=[N+]([O-])c1nccn1COCC=CCO [Compound 1)] | ++ | ++ | + | - | ± | - | - |  | more than 20 days | 830 mg/kg | more than 50 days | 0 | no death
